From the supplement of paper PMC12819154, “High-throughput peptide-centric local stability assay extends protein–ligand identification to membrane proteins, tissues and bacteria” (Nature Structural & Molecular Biology, 2025)

What was measured:
Test in all cases: pEC50 of peptide local stability change
[1] = target: MurF (UniProt P11880); conditions: peptide sequence: KLTPGCLFVALKGER; direction: stabilized; replicate design: treated separately
Protocol: (§1)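 Dose-response HT-PELSA: desalted E. coli lysate treated separately per replicate with ATP (10 uM to 10 mM, 7 doses) for 30 min at 25 C, then a 4 min trypsin pulse at 22 C. Peptide ratio vs control was fitted with a 4-parameter log-logistic model (R2 > 0.9 in at least 3 replicates, CV of pEC50 <= 0.25); value is the mean pEC50 across replicates for stabilized or destabilized peptides.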

[2] = target: UniProt P00363; conditions: peptide sequence: LAGEQATER; direction: stabilized; replicate design: treated separately
Protocol: as §1

[3] = target: UniProt P00452; conditions: peptide sequence: VKAVELFSLMMQER; direction: stabilized; replicate design: treated separately
Protocol: as §1

[4] = target: UniProt P00954; conditions: peptide sequence: FRNDEAFLQQVMK; direction: stabilized; replicate design: treated separately
Protocol: as §1

[5] = target: UniProt P03018; conditions: peptide sequence: EVYHRPSR; direction: stabilized; replicate design: treated separately
Protocol: as §1

[6] = target: UniProt P05707; conditions: peptide sequence: VGSKHNSGYSAAK; direction: stabilized; replicate design: treated separately
Protocol: as §1

[7] = target: UniProt P06710; conditions: peptide sequence: ALDVEQIR; direction: stabilized; replicate design: treated separately
Protocol: as §1

[8] = target: UniProt P0A6H5; conditions: peptide sequence: LANAPFIK; direction: stabilized; replicate design: treated separately
Protocol: as §1

[9] = target: UniProt P0A8F8; conditions: peptide sequence: VLVTTLTKR; direction: stabilized; replicate design: treated separately
Protocol: as §1

[10] = target: UniProt P0A9P6; conditions: peptide sequence: DVLGMAQTGSGK; direction: stabilized; replicate design: treated separately
Protocol: as §1

[11] = target: UniProt P13009; conditions: peptide sequence: TPPVTLEAAR; direction: stabilized; replicate design: treated separately
Protocol: as §1

[12] = target: UniProt P14081; conditions: peptide sequence: LFITAATEGR; direction: stabilized; replicate design: treated separately
Protocol: as §1

[13] = target: UniProt P14375; conditions: peptide sequence: ELENAVER; direction: stabilized; replicate design: treated separately
Protocol: as §1

[14] = target: UniProt P15034; conditions: peptide sequence: RAGEITAMAHTR; direction: stabilized; replicate design: treated separately
Protocol: as §1

[15] = target: UniProt P15038; conditions: peptide sequence: AVVNGEHSLLVLAGAGSGK; direction: stabilized; replicate design: treated separately
Protocol: as §1

[16] = target: UniProt P21599; conditions: peptide sequence: VLEVQGMK; direction: stabilized; replicate design: treated separately
Protocol: as §1

[17] = target: UniProt P25742; conditions: peptide sequence: GCETKPITGLAGK; direction: stabilized; replicate design: treated separately
Protocol: as §1

[18] = target: UniProt P25888; conditions: peptide sequence: DLMASAQTGTGK; direction: stabilized; replicate design: treated separately
Protocol: as §1

[19] = target: UniProt P27296; conditions: peptide sequence: AQIAAWYK; direction: stabilized; replicate design: treated separately
Protocol: as §1

[20] = target: UniProt P27828; conditions: peptide sequence: AHNPYGDGQACSR; direction: stabilized; replicate design: treated separately
Protocol: as §1

[21] = target: UniProt P27833; conditions: peptide sequence: SALINFLK; direction: stabilized; replicate design: treated separately
Protocol: as §1

[22] = target: UniProt P28903; conditions: peptide sequence: KGDPNYDIK; direction: stabilized; replicate design: treated separately
Protocol: as §1

[23] = target: UniProt P30844; conditions: peptide sequence: AGQSFSSGNYQHVK; direction: stabilized; replicate design: treated separately
Protocol: as §1

[24] = target: UniProt P33593; conditions: peptide sequence: LADDVAVMSDGK; direction: stabilized; replicate design: treated separately
Protocol: as §1

[25] = target: UniProt P33940; conditions: peptide sequence: EYYPQAK; direction: stabilized; replicate design: treated separately
Protocol: as §1

[26] = target: UniProt P36938; conditions: peptide sequence: TLVSSAMIDR; direction: stabilized; replicate design: treated separately
Protocol: as §1

[27] = target: UniProt P37760; conditions: peptide sequence: TGQVGWELQR; direction: stabilized; replicate design: treated separately
Protocol: as §1

[28] = target: UniProt P76027; conditions: peptide sequence: EILNLPEHELNKLR; direction: stabilized; replicate design: treated separately
Protocol: as §1

[29] = target: UniProt P77756; conditions: peptide sequence: ALNHAVSLGMAK; direction: stabilized; replicate design: treated separately
Protocol: as §1

[30] = target: UniProt Q46927; conditions: peptide sequence: AALIAYCR; direction: stabilized; replicate design: treated separately
Protocol: as §1

[31] = target: UniProt Q47129; conditions: peptide sequence: LSTVTTSGVNLSR; direction: stabilized; replicate design: treated separately
Protocol: as §1

UniProt P27833, sequence (P27833 whole entry): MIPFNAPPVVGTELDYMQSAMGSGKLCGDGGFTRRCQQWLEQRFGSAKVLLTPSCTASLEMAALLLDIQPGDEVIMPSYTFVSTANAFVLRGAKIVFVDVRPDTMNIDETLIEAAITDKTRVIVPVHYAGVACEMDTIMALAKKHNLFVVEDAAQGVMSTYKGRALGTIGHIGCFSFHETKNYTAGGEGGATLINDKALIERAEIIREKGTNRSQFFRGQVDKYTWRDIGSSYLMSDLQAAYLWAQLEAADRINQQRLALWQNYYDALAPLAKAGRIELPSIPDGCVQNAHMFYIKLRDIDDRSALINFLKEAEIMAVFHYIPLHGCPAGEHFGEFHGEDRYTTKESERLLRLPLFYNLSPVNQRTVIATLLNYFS
UniProt P00363, sequence (P00363 whole entry): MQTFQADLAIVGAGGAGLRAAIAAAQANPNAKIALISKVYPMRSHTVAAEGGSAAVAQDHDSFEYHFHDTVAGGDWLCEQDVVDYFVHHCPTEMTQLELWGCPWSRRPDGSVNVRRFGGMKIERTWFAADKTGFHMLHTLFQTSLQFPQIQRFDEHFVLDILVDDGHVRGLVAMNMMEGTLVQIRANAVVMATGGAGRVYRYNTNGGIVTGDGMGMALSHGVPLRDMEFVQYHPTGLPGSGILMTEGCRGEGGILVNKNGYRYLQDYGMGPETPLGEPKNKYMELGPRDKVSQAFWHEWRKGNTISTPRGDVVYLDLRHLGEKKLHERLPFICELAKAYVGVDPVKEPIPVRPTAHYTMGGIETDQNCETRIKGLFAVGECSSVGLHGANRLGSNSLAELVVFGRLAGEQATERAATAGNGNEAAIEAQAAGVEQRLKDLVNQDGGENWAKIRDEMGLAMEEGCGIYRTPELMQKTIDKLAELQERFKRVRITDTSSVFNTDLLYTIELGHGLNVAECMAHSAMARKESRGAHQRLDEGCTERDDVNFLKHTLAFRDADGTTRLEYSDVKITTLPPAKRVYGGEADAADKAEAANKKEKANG
UniProt P05707, sequence (P05707 whole entry): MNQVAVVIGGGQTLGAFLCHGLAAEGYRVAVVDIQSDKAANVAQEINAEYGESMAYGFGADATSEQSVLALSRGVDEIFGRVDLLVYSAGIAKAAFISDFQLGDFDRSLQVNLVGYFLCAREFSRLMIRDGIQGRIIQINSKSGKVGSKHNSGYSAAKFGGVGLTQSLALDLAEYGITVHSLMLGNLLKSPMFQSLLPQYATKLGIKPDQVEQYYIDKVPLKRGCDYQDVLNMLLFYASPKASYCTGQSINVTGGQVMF
UniProt P27296, sequence (P27296 whole entry): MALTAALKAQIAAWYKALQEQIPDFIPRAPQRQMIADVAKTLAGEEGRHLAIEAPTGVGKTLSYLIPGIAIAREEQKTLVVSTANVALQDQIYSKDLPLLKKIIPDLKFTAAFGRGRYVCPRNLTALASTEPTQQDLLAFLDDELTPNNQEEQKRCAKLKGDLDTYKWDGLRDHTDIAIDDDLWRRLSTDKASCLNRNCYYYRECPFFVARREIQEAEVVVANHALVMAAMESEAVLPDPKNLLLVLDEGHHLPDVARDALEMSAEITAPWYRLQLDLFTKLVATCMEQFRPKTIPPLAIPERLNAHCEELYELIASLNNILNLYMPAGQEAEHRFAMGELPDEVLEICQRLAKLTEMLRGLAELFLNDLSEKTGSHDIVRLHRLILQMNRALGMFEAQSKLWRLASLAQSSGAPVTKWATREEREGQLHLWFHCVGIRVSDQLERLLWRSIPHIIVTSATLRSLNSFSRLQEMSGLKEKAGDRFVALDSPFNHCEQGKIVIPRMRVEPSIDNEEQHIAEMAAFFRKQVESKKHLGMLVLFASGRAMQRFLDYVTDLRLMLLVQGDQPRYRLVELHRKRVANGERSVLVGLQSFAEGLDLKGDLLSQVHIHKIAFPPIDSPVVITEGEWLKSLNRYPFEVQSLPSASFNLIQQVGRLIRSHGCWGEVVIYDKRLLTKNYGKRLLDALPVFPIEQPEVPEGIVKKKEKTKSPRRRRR
UniProt P25742, sequence (P25742 whole entry): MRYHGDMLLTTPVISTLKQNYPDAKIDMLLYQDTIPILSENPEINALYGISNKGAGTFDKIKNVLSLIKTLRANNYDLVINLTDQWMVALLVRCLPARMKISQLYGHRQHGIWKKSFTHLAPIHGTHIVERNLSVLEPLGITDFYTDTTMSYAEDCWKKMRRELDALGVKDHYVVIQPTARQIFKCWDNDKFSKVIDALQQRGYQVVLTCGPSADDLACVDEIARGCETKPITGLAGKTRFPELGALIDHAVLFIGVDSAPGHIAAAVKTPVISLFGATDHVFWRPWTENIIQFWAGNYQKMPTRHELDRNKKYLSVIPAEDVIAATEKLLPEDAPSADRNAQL
UniProt P15038, sequence (P15038 whole entry): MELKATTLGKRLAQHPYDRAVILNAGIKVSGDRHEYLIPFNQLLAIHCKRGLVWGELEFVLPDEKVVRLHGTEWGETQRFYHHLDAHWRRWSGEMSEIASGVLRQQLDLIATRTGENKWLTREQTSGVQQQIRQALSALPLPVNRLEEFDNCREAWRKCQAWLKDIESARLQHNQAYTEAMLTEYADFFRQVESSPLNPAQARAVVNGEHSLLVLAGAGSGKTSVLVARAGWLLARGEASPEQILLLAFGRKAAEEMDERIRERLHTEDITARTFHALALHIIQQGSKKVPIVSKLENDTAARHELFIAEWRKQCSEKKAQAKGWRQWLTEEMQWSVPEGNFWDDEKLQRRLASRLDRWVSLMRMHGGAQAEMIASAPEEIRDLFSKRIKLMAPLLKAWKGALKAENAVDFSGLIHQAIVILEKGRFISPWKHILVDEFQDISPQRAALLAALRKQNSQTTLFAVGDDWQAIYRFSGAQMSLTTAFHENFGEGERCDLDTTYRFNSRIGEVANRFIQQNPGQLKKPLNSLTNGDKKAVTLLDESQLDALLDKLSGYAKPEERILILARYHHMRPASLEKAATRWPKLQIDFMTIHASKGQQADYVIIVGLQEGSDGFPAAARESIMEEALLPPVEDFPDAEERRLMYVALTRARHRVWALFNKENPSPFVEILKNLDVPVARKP
UniProt P33940, sequence (P33940 whole entry): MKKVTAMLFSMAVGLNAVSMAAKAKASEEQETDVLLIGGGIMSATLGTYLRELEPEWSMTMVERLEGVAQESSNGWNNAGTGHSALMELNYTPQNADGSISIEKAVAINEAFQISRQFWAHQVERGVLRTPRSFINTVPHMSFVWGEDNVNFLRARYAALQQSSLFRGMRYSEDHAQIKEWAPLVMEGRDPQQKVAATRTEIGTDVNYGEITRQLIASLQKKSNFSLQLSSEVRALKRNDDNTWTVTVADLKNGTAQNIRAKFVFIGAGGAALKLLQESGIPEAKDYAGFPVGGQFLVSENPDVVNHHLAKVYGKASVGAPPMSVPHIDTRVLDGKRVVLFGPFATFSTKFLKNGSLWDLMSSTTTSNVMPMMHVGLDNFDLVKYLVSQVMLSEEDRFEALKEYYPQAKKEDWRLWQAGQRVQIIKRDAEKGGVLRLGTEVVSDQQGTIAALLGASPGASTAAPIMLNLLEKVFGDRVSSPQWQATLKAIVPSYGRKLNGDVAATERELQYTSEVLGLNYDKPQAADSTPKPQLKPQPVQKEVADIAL
UniProt P28903, sequence (P28903 whole entry): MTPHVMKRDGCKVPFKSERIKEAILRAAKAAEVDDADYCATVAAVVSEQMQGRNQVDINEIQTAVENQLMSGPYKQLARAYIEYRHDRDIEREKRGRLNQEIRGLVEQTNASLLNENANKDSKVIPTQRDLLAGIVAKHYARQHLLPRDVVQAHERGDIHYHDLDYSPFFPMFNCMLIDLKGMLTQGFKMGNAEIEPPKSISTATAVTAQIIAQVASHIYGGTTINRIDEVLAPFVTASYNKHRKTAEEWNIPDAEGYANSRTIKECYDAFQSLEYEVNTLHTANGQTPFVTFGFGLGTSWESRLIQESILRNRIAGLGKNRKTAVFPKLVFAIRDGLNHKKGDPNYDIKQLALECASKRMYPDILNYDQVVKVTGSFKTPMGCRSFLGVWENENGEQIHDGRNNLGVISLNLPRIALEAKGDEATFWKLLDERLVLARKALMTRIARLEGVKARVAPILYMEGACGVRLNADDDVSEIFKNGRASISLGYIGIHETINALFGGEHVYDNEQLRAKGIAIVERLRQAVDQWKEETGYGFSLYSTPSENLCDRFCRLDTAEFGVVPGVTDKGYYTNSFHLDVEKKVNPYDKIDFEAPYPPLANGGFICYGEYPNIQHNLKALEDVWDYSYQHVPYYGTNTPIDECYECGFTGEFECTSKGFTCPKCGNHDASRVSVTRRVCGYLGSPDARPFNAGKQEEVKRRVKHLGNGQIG
UniProt P77756, sequence (P77756 whole entry): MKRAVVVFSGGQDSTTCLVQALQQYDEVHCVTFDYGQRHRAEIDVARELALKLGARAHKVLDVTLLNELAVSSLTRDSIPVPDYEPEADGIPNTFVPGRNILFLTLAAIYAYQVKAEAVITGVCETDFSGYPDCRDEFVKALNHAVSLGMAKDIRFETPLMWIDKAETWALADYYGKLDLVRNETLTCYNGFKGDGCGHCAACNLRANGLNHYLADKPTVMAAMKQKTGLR
UniProt P33593, sequence (P33593 whole entry): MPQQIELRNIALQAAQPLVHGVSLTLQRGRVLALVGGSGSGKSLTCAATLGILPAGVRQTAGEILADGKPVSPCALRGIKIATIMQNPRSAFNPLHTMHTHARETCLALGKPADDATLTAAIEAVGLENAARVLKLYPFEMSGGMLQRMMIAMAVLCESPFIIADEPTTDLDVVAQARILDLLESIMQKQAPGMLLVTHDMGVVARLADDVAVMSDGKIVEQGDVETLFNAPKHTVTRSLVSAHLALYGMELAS

Nc1ncnc2c1ncn2[C@@H]1O[C@H](COP(=O)(O)OP(=O)(O)OP(=O)(O)O)[C@@H](O)[C@H]1O [adenosine 5'-triphosphate]
Conditions	pEC50 of peptide local stability change
[1]	4.01
[2]	2.48
[3]	3.75
[4]	2.73
[5]	3.07
[6]	3.86
[7]	3.78
[8]	3.26
[9]	2.14
[10]	3.67
[11]	2.53
[12]	3.42
[13]	3.65
[14]	3.83
[15]	3.67
[16]	2.4
[17]	2.67
[18]	3.76
[19]	3.36
[20]	2.12
[21]	2.89
[22]	2.76
[23]	2.71
[24]	4.43
[25]	3.09
[26]	2.48
[27]	3.12
[28]	2.71
[29]	3.62
[30]	3.69
[31]	2.46
